Data: patent US7671091B2, “Penis enlargement” (priority 2004, dated 2010)

What was measured:
human penis [1] = test: Permanent increase in erect penis length and girth after repeated intracavernosal vasodilator treatment of male patients; format: in vivo
From the text: The term “penis length” refers to the maximum length of the penis, as measured along the dorsal surface of the penis from the symphysis pubis to the tip or end of the glans penis when the glans penis is pulled manually and put under tension. Preferably, the measurement is taken when the penis is fully erect.
The term “penis girth” refers to the largest measured value obtained for circumference of the erect penis, as measured in the midshaft region (middle third). Preferably, the measurement is taken when the penis is fully erect.
An engorgement is deemed “cumulative prolonged” when an erectile response lasts for at least 3 hours over a 24 hours period.
(§1) Therefore, a “cumulative prolonged engorgement” would be an erectile response that is over 40% for a period of at least 3 hours in a 24 hours period.
A patient was treated with intracavernosal injections of a vasodilator, prostaglandin E1, on a regular basis (approximately four to five times per week) over an 18 month treatment period. […] The quantity of medication was adjusted from time to time in accordance with the patient's response, which was monitored at least weekly. […]
A patient was treated with intracavernosal injections of a quadruple mix of the vasodilators prostaglandin E1, Atropine, Chlorpromazine and Papavarine on a regular basis (approximately two to four times per week) over a 4-month treatment period. […] The quantity of medication was adjusted in accordance with the patient's response. The potentiator dihydrotestosterone 5% ointment was administered […] starting two weeks before starting the IC injections of the vasodilators Atropine, Chlorpromazine and Papavarine and prostaglandin.

human penis [2] = conditions: in vivo
Description: as §1
(§2) The quantity of medication was adjusted in accordance with the patient's response.
as §2

[3] = Example 1: patient, 18-month treatment

Structure (SMILES) | increase in erect penis length (human penis [1]; Example 6: patient, 4 months, frequently with oral Viagra, dihydrotestosterone gel) [%] | erect penis length after treatment (human penis [1]; Example 6: patient, intracavernosal 2-4 times per week, 4 months, frequently combined with oral Viagra, potentiator dihydrotestosterone gel, from 5.2 inches) [inches] | increase in erect penis girth (human penis [1]; [3]) [%] | increase in erect penis length (human penis [1]; [3]) [%] | fully erect penis girth after treatment (human penis [1]; Example 1: patient, 18-month treatment, from 3.7 inches) [inches] | fully erect penis length after treatment (human penis [1]; Example 1: patient, intracavernosal, approx. 4-5 times per week, 18-month treatment, from 5.8 inches) [inches] | increase in erect penis length (human penis [1]; Example 10: patient, 3 months, with daily subcutaneous dihydrotestosterone) [%] | erect penis length after treatment (human penis [1]; Example 10: patient, two separate IC injections per treatment day, 2-5 times per week, 3 months, dihydrotestosterone 15 mg subcutaneously into the penis daily, from 6.3 inches) [inches] | tolerability (sensitivity) (human penis [2])
Cc1ccc(N(CC2=NCCN2)c2cccc(O)c2)cc1 [phentolamine] | ~25 | 6.5 |  |  |  |  |  |  | 
CCCCC[C@H](O)/C=C/[C@H]1[C@H](O)CC(=O)[C@@H]1CCCCCCC(=O)O [prostaglandin E1] |  |  | ~56 | ~48 | 5.8 | 8.6 | ~13 | 7.1 | aching and pain at higher doses
